This note sets out measurements from US12116424B2, “Compounds and compositions for modulating Listeria virulence” (priority 2021, dated 2024).

The assay concerns the target L. monocytogenes AgrC (Listeria monocytogenes serovar 1/2a, UniProt Q8YAR5). The assay is described as follows: Fluorescence (agr-GFP) reporter agonism assay, ΔagrD reporter strain. In kind it is cell-based. Also on record: Emax: dose or concentration left out as unconfirmed. The note with it: for loss in potency: relative to native AIP. The source says: Construction of Listeria agr Reporter Strains. A gene block was designed and purchased from Integrated DNA Technologies to contain an EagI recognition site, the PII promoter of the agr system, the 3′ UTR of hly, super folder GFP, and a SaII recognition site. The gene block was digested with EagI and SaII, cloned into an EagI/SaII-cut pAM401 plasmid resulting in the plasmid pAM401-KW1, and then transformed into E. coli XL1-Blue competent cells. The insertion into pAM401 was confirmed using Kapa polymerase and primers DAP337 and DAP338, and additional confirmation via commercial sequencing. Purified plasmid was transformed into the conjugative E. coli S17 strain, which was used to conjugate to EGD-e and EGD-e ΔagrD to generate the agr-GFP reporter strains EGD-e:pAM401-KW1 and EGD-e ΔagrD:pAM401-KW1. Conjugation was verified using primers DAP337 and DAP338.
Fluorescence reporter assay protocol. For QS (agr) reporter assays, peptide stock solutions in DMSO (1 mM) were serially diluted in DMSO, and 2 μL of solution was added to each well in a black 96-well plate (polystyrene microtiter plate, Costar). Agonism assays utilized the ΔagrD reporter strain, with 2 μL of 100 μM AIP (final concentration 1 μM) as a positive control and 2 μL of DMSO as a negative control. Antagonism assays utilized the EGD-e reporter strain, with 2 μL of DMSO as a positive control. In both assays, wells containing only BHI media served as negative controls for normalization. An overnight culture of bacteria was diluted 1:50 in fresh BHI, then 198 μL were transferred to each well (excluding the media control wells). Plates were then incubated at 37° C. for 24 hours with shaking at 200 rpm. Fluorescence of GFP (excitation at 500 nm, emission at 540 nm) and OD600 of each well was measured using BioTek Synergy 2 plate reader. Measurements were processed by subtracting background fluorescence (BHI media), correcting by OD600, and the normalizing using the 1 μM AIP or the DMSO control for the agonism and antagonism assays, respectively. Non-linear regression curves were fitted to the data sets in GraphPad Prism 7 by using variable slope (four-parameter) dose-response analysis to obtain potency, efficacy, and statistical information about the activity of tested peptides. Each peptide was tested with three technical replicates and three biological replicates. All data derived from fluorescent reporter strains are represented with data points signifying the mean and error bars signifying the standard deviation from all replicates.
Preparation and Validation of Listeria agr Reporter Strains. In order to facilitate profiling the native AIP and its analogs for agr activity, L. monocytogenes agr GFP reporters were designed and constructed as described above (see Materials and General Methods). Briefly, a plasmid containing the agr promoter region upstream of gfp was transformed into wild-type (EGD-e) and ΔagrD L. monocytogenes strains. The wild-type reporter naturally produces its own AIP and is able to activate AgrC, which may subsequently phosphorylate AgrA for productive binding to DNA and triggering the production of GFP (FIG. 1A). The ΔagrD reporter, lacking the ability to produce its own AIP and thereby activate AgrC, is unable to trigger substantial production of GFP. However, adding exogenous AIP to the ΔagrD reporter results in an increase of fluorescence, indicating agr activity has been restored.

Setting [1] is: read-out: Max Activation Observed.

Structures are written as SMILES. Where two headings read alike, the source gives them in different places. Where a SMILES comes first, the peptide text is derived from it. Bridges are numbered along the chain shown (N, C = ends). [ ]: non-standard residue; d: D form. Dap = NC[C@H](N)C(=O)O

Sequence of L. monocytogenes AgrC (Q8YAR5 entry or part of it): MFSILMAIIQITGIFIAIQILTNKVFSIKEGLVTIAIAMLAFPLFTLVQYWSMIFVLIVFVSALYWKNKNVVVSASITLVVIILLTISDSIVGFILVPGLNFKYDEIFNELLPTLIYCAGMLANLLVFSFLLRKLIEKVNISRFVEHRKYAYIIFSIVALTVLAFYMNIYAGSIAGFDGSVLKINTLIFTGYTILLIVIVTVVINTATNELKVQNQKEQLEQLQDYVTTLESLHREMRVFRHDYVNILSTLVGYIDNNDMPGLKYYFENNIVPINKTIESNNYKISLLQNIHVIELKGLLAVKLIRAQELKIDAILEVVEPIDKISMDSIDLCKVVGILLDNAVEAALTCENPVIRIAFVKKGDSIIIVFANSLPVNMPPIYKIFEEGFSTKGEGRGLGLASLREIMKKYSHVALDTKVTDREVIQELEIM

Regarding `CC(C)[C@@H]1NC(=O)[C@H](Cc2ccccc2)NC(=O)[C@H](C)NC(=O)[C@H](Cc2ccccc2)NC(=O)[C@@H](NC(=O)[C@H](C)N)CSC1=O` [AIP M4A, A-(C-F-A-F-V)] (H-ACFAFV; thioester 2-C; N-terminus assumed), the Emax under setting [1] came to 53.5%. In addition, for the setting “ΔagrD reporter”, the “EC50 (in words)” value is recorded as “low micromolar range”; the “agonism activity (in words)” value was “decreased potency and agonism compared to the native AIP”.
Consider `CSCC[C@@H]1NC(=O)[C@H](Cc2ccccc2)NC(=O)[C@@H](NC(=O)[C@H](C)N)CSC(=O)[C@H](C(C)C)NC(=O)[C@H](Cc2c[nH]cn2)NC1=O` [AIP F5H, A-(C-F-M-H-V)] (H-ACFMHV; thioester 2-C; N-terminus assumed), for which the Emax under setting [1] was found to be 7.13%.
Same read-out and setting: for `CSCC[C@@H]1NC(=O)[C@H](Cc2ccccc2)NC(=O)[C@@H](NC(=O)[C@H](C)N)CSC(=O)[C@H](C(C)C)NC(=O)[C@H](CC(C)C)NC1=O` [AIP F5L, A-(C-F-M-L-V)] (H-ACFMLV; thioester 2-C; N-terminus assumed) the value was 64.8%.
For `CSCC[C@@H]1NC(=O)[C@H](Cc2ccccc2)NC(=O)[C@@H](N)CSC(=O)[C@H](C(C)C)NC(=O)[C@H](Cc2ccccc2)NC1=O` [Compound 5-mer, (C-F-M-F-V)] (H-CFMFV; thioester 1-C), the loss in potency result (agonism) was “ten-fold”. The Emax (read-out: Max Activation) was found to be 110%. For the same molecule, the “agonism activity (in words)” value (ΔagrD reporter) was “fully maintained its agonism activity”.
Take `CC[C@H](C)[C@@H]1NC(=O)[C@H](Cc2ccccc2)NC(=O)[C@H](Cc2ccc(O)cc2)NC(=O)[C@@H](NC(=O)[C@@H](NC(=O)[C@H](CO)NC(=O)[C@@H](N)Cc2ccc(O)cc2)[C@@H](C)O)CSC(=O)[C@H](CCSC)NC1=O` [Sa AIP-IV, Y-S-T-(C-Y-F-I-M), reference compound] (H-YSTCYFIM; thioester 4-C): the “agonism or antagonism activity compared to vehicle (FIG. 1B)” value (10 μM, wild-type reporter or ΔagrD reporter) is “minimal efficacy”. Moreover, for the setting “read-out: Max Activation”, the Emax was 9.81%.
For `CSCC[C@@H]1NC(=O)[C@H](Cc2ccccc2)NC(=O)[C@@H](NC(=O)[C@H](C)N)CNC(=O)[C@H](C(C)C)NC(=O)[C@H](Cc2ccccc2)NC1=O` [AIP C2Dap, A-(Dap-F-M-F-V)] (H-A[Dap]FMFV; lactam 2-C; N-terminus assumed), the loss in potency (agonism) was 10 fold. Further, the Emax under setting [1] came out at 92.9%. The “agonism activity (in words)” value (ΔagrD reporter) is recorded as “largely retains the activation activity of the native AIP”.
In the case of `CC[C@H](C)[C@@H]1NC(=O)[C@H](Cc2ccccc2)NC(=O)[C@H](CC(=O)O)NC(=O)[C@@H](NC(=O)[C@@H](NC(=O)[C@H](CO)NC(=O)[C@@H](N)Cc2ccc(O)cc2)[C@@H](C)O)CSC(=O)[C@H](CCSC)NC1=O` [Sa AIP-I, Y-S-T-(C-D-F-I-M), reference compound] (H-YSTCDFIM; thioester 4-C), for the setting “read-out: Max Activation”, the Emax was found to be 12.2%.
Consider `CSCC[C@@H]1NC(=O)[C@H](Cc2ccccc2)NC(=O)[C@@H](NC(=O)[C@H](C)N)CSC(=O)[C@H](C(C)C)NC(=O)[C@@H](Cc2ccccc2)NC1=O` [AIP F5dF, A-(C-F-M-dF-V)] (H-ACFM[dF]V; thioester 2-C; N-terminus assumed), for which, under “agonism”, the loss in potency result is on record as “two orders of magnitude”. For the same molecule, under setting [1], the Emax is 72.3%. Besides, the “agonism activity (in words)” value (ΔagrD reporter) was “maintain some agonism activity”.
Regarding `CSCC[C@@H]1NC(=O)[C@H](Cc2ccccc2)NC(=O)[C@@H](NC(=O)[C@H](C)NC(=O)[C@@H](N)CCCCN)CSC(=O)[C@H](C(C)C)NC(=O)[C@H](Cc2ccccc2)NC1=O` [Compound 7-mer, K-A-(C-F-M-F-V)] (H-KACFMFV; thioester 3-C; N-terminus assumed), the Emax (read-out: Max Activation) was 64.6%.
Take `CSCC[C@@H]1NC(=O)[C@H](Cc2ccccc2)NC(=O)[C@@H](NC(=O)[C@H](C)N)CSC(=O)[C@H](C)NC(=O)[C@H](Cc2ccccc2)NC1=O` [AIP V6A, A-(C-F-M-F-A)] (H-ACFMFA; thioester 2-C; N-terminus assumed): the Emax reads like this: (read-out: Max Activation) 69%; under setting [1], 69%. Moreover, where the note is “ΔagrD reporter”, the “agonism activity (in words)” value was “decreased potency and agonism compared to the native AIP”.
As for `CC(C)[C@@H]1NC(=O)[C@H](Cc2ccccc2)NC(=O)[C@@H](C)NC(=O)[C@H](Cc2ccccc2)NC(=O)[C@@H](NC(=O)[C@H](C)N)CSC1=O` [AIP M4dA, A-(C-F-dA-F-V)] (H-ACF[dA]FV; thioester 2-C; N-terminus assumed), the improved potency result (agonism, relative to AIP M4A) is “about four-fold”. The Emax under setting [1] stood at 82%.
With `CSCC[C@@H]1NC(=O)[C@H](Cc2c[nH]c3ccccc23)NC(=O)[C@@H](NC(=O)[C@H](C)N)CSC(=O)[C@H](C(C)C)NC(=O)[C@H](Cc2ccccc2)NC1=O` [AIP F3W, A-(C-W-M-F-V)] (H-ACWMFV; thioester 2-C; N-terminus assumed), the Emax under setting [1] was 60.6%.
Still for that read-out and setting: under `CSCC[C@@H]1NC(=O)[C@H](Cc2ccccc2)NC(=O)[C@@H](NC(=O)[C@H](C)N)CSC(=O)[C@H](C(C)C)NC(=O)[C@H](Cc2c[nH]c3ccccc23)NC1=O` [AIP F5W, A-(C-F-M-W-V)] (H-ACFMWV; thioester 2-C; N-terminus assumed) stands 85.8%.
Consider `CC(C)C[C@@H]1NC(=O)[C@H](Cc2ccc(O)cc2)NC(=O)[C@H](CC(N)=O)NC(=O)[C@H](CO)NC(=O)[C@@H](NC(=O)[C@@H]2CCCN2C(=O)[C@H](CC(N)=O)NC(=O)[C@H](Cc2ccc(O)cc2)NC(=O)[C@H](CCCCN)NC(=O)[C@H](CO)NC(=O)[C@H](C)NC(=O)[C@@H](N)CC(N)=O)CSC1=O` [Se AIP-II, N-A-S-K-Y-N-P-(C-S-N-Y-L), reference compound] (H-NASKYNPCSNYL; thioester 8-C), for which the Emax (read-out: Max Activation) came out at 8.45%.
Take `CSCC[C@@H]1NC(=O)[C@H](CC(C)C)NC(=O)[C@@H](NC(=O)[C@H](C)N)CSC(=O)[C@H](C(C)C)NC(=O)[C@H](Cc2ccccc2)NC1=O` [AIP F3L, A-(C-L-M-F-V)] (H-ACLMFV; thioester 2-C; N-terminus assumed): the Emax under setting [1] came out at 37.6%.
As to `CC(C)[C@H](NC(=O)[C@H](CO)NC(=O)[C@H](C)N)C(=O)N[C@H]1CSC(=O)[C@H](Cc2ccccc2)NC(=O)[C@H](Cc2ccc(O)cc2)NC(=O)[C@H](C)NC(=O)[C@H](C)NC1=O` [Se AIP-I D1AS6A, A-S-V-(C-A-A-Y-F), reference compound] (H-ASVCAAYF; thioester 4-C), where the note is “read-out: Max Activation”, the Emax was found to be 12.4%.
Same read-out and setting: for `C[C@H](N)C(=O)N[C@@H](CO)C(=O)N[C@@H](C)C(=O)N[C@H]1CSC(=O)[C@H](Cc2ccccc2)NC(=O)[C@H](Cc2ccc(O)cc2)NC(=O)[C@H](C)NC(=O)[C@H](C)NC1=O` [Se AIP-I D1AV3AS6A, A-S-A-(C-A-A-Y-F), reference compound] (H-ASACAAYF; thioester 4-C) the value was 12.1%.
As to `CSCC[C@@H]1NC(=O)[C@H](Cc2ccccc2)NC(=O)[C@@H](NC(=O)[C@H](C)N)CSC(=O)[C@@H](C(C)C)NC(=O)[C@H](Cc2ccccc2)NC1=O` [AIP V6dV, A-(C-F-M-F-dV)] (H-ACFMF[dV]; thioester 2-C; N-terminus assumed), under setting [1], the Emax stood at 72.9%.
On the same count and under the same terms, under `CSCC[C@@H]1NC(=O)[C@H](Cc2ccccc2)NC(=O)[C@@H](NC(=O)[C@@H](C)N)CSC(=O)[C@H](C(C)C)NC(=O)[C@H](Cc2ccccc2)NC1=O` [AIP A1dA, dA-(C-F-M-F-V)] (H-[dA]CFMFV; thioester 2-C; N-terminus assumed) stands 58.8%.
On to `CC[C@H](C)[C@H](N)C(=O)N[C@@H](CC(N)=O)C(=O)N[C@H]1CSC(=O)[C@H](CC(C)C)NC(=O)[C@H](CC(C)C)NC(=O)[C@H](Cc2ccccc2)NC(=O)[C@H](C)NC1=O` [Sa AIP-III D4A, I-N-(C-A-F-L-L), reference compound] (H-INCAFLL; thioester 3-C), for which the Emax (read-out: Max Activation) is 12.3%.
